Reference: PubChem BioAssay (NCI)
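GI50: concentration for 50% inhibition of growth. TGI marks complete inhibition of growth.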

What was measured:
Assay in all cases: DTP human tumour cell line panel, 384-well format
[1] = tested on: 786-0 renal
[2] = tested on: NCI-H226 lung
[3] = tested on: IGROV1 ovarian
[4] = tested on: MDA-MB-231 breast
[5] = tested on: RXF 393 renal
[6] = tested on: UACC-62 melanoma
[7] = tested on: EKVX NSCLC
[8] = tested on: BT-549 breast
[9] = tested on: OVCAR-5 ovarian
[10] = tested on: DU-145 prostate
[11] = tested on: HOP-62 NSCLC
[12] = tested on: SR leukemia
[13] = tested on: NCI-H460 NSCLC
[14] = tested on: COLO 205 colon
[15] = tested on: UACC-257 melanoma
[16] = tested on: SNB-75 CNS
[17] = tested on: HCT-116 colon
[18] = tested on: ACHN renal
[19] = tested on: NCI-H322M lung
[20] = tested on: SK-OV-3 ovarian
[21] = tested on: MOLT-4 leukemia
[22] = tested on: OVCAR-4 ovarian
[23] = tested on: HCT-15 colon
[24] = tested on: OVCAR-3 ovarian
[25] = tested on: SF-539 CNS
[26] = tested on: PC-3 prostate
[27] = tested on: SW-620 colon
[28] = tested on: T-47D breast
[29] = tested on: HL-60(TB) leukemia
[30] = tested on: KM12 colon
[31] = tested on: OVCAR-8 ovarian
[32] = tested on: U251 glioblastoma
[33] = tested on: HS 578T breast
[34] = tested on: HOP-92 NSCLC
[35] = tested on: A549 NSCLC
[36] = tested on: SK-MEL-28 melanoma
[37] = tested on: M14 melanoma
[38] = tested on: NCI-H23 lung
[39] = tested on: CAKI-1 renal
[40] = tested on: NCI-H522 lung
[41] = tested on: SNB-19 CNS
[42] = tested on: HT29 colon
[43] = tested on: A498 renal
[44] = tested on: HCC-2998 colon
[45] = tested on: SN12C renal
[46] = tested on: RPMI-8226 leukemia
[47] = tested on: MDA-MB-435 melanoma
[48] = tested on: SK-MEL-5 melanoma
[49] = tested on: MCF7 breast
[50] = tested on: SF-268 CNS
[51] = tested on: MDA-MB-468 breast
[52] = tested on: LOX IMVI melanoma
[53] = tested on: TK-10 renal
[54] = tested on: NCI/ADR-RES ovarian
[55] = tested on: SF-295 CNS
[56] = tested on: UO-31 renal
[57] = tested on: MALME-3M melanoma

## CNC(=O)c1ccc(N2C(=S)N(c3ccc(C#N)c(C(F)(F)F)c3)C(=O)C2(C)C)cc1F
[1]
  GI50: > 100 µM
  TGI: > 100 µM
[2]
  GI50: 29.9 µM
  TGI: > 100 µM
[3]
  GI50: 52.1 µM
  TGI: > 100 µM
[4]
  GI50: 95.6 µM
  TGI: > 100 µM
[5]
  GI50: 29.6 µM
  TGI: 85.7 µM
[6]
  GI50: > 100 µM
  TGI: > 100 µM
[7]
  GI50: 44.8 µM
  TGI: > 100 µM
[8]
  GI50: 31.7 µM
  TGI: 95.5 µM
[9]
  GI50: > 100 µM
  TGI: > 100 µM
[10]
  GI50: 37.5 µM
  TGI: > 100 µM
[11]
  GI50: 27.5 µM
  TGI: 84.9 µM
[12]
  GI50: 33.5 µM
  TGI: 49.7 µM
[13]
  GI50: 38.9 µM
  TGI: > 100 µM
[14]
  GI50: 95.5 µM
  TGI: > 100 µM
[15]
  GI50: 72.4 µM
  TGI: > 100 µM
[16]
  GI50: 48.5 µM
  TGI: > 100 µM
[17]
  GI50: 33.7 µM
  TGI: > 100 µM
[18]
  GI50: 19.8 µM
  TGI: 40.4 µM
[19]
  GI50: 93.8 µM
  TGI: > 100 µM
[20]
  GI50: > 100 µM
  TGI: > 100 µM
[21]
  GI50: 18.1 µM
  TGI: 35.3 µM
[22]
  GI50: 34.7 µM
  TGI: 92.6 µM
[23]
  GI50: 46 µM
  TGI: > 100 µM
[24]
  GI50: 59.2 µM
  TGI: > 100 µM
[25]
  GI50: > 100 µM
  TGI: > 100 µM
[26]
  GI50: 49.6 µM
  TGI: > 100 µM
[27]
  GI50: > 100 µM
  TGI: > 100 µM
[28]
  GI50: 32.9 µM
  TGI: > 100 µM
[29]
  GI50: 17 µM
  TGI: 34.5 µM
[30]
  GI50: 69.1 µM
  TGI: > 100 µM
[31]
  GI50: 37.6 µM
  TGI: > 100 µM
[32]
  GI50: 61.9 µM
  TGI: > 100 µM
[33]
  GI50: 30.9 µM
  TGI: > 100 µM
[34]
  GI50: > 100 µM
  TGI: > 100 µM
[35]
  GI50: 34.4 µM
  TGI: > 100 µM
[36]
  GI50: > 100 µM
  TGI: > 100 µM
[37]
  GI50: 81.9 µM
  TGI: > 100 µM
[38]
  GI50: 31.3 µM
  TGI: > 100 µM
[39]
  GI50: 90.8 µM
  TGI: > 100 µM
[40]
  GI50: 74 µM
  TGI: > 100 µM
[41]
  GI50: 85.4 µM
  TGI: > 100 µM
[42]
  GI50: 82.9 µM
  TGI: > 100 µM
[43]
  GI50: 54.7 µM
  TGI: > 100 µM
[44]
  GI50: 93.4 µM
  TGI: > 100 µM
[45]
  GI50: > 100 µM
  TGI: > 100 µM
[46]
  GI50: 32 µM
  TGI: > 100 µM
[47]
  GI50: > 100 µM
  TGI: > 100 µM
[48]
  GI50: 41.4 µM
  TGI: > 100 µM
[49]
  GI50: 37.6 µM
  TGI: > 100 µM
[50]
  GI50: 72.2 µM
  TGI: > 100 µM
[51]
  GI50: 26.9 µM
  TGI: 80.2 µM
[52]
  GI50: 49.6 µM
  TGI: > 100 µM
[53]
  GI50: > 100 µM
  TGI: > 100 µM
[54]
  GI50: 27.5 µM
  TGI: 90.9 µM
[55]
  GI50: 31.6 µM
  TGI: > 100 µM
[56]
  GI50: 63.1 µM
  TGI: > 100 µM
[57]
  GI50: 24.1 µM
  TGI: > 100 µM
